Reference: the NIST ThermoML archive (doi:10.1021/je800446c)
± gives the expanded uncertainty stated by the source.

Details: 298.15 K; 101.33 kPa; Liquid; Pycnometric method

mass density	Compound
805.85 ± 0.72 kg/m3	CCCCO [butan-1-ol]
802 ± 1 kg/m3	CCC(C)O (stereo unspecified) [butan-2-ol]
785.35 ± 0.71 kg/m3	CCO [ethanol]
786.57 ± 0.71 kg/m3	CO [methanol]
799.98 ± 0.72 kg/m3	CCCO [propan-1-ol]
781.35 ± 0.7 kg/m3	CC(C)O [propan-2-ol]
